Active and inactive are the calls of the source. No cut-off for these calls is given here.
Tests used:
Homo sapiens = species on record: Homo sapiens; assay: Selectivity index, ratio of IC50 for human serum BuChE to IC50 for recombinant human AChE expressed in HEK293 cells; type: cell-based
SH-SY5Y [1] = assay: Neuroprotective activity against rotenone/oligomycin A-induced mitochondrial oxidative stress in human SH-SY5Y cells at 0.3 uM after 24 hrs by MTT assay relative to control; type: functional
Acetylcholinesterase [2] = biological target: T1, Acetylcholinesterase (Homo sapiens, UniProt P22303); assay: Inhibition of recombinant human AChE expressed in HEK293 cells using acetylthiocholine iodide as substrate pretreated for 5 mins followed by substrate addition and measured for 5 mins by Ellman's method
in vitro = conditions: PAMPA, pH 7.4
Description: Permeability of the compound in pH 7.4 PBS by PAMPA-BBB assay

SH-SY5Y [3] = assay: Neuroprotective activity against rotenone/oligomycin A-induced mitochondrial oxidative stress in human SH-SY5Y cells at 0.1 uM after 24 hrs by MTT assay relative to control; type: functional
Cholinesterase = Cholinesterase (Homo sapiens, UniProt P06276); assay: Inhibition of human serum BuChE using butyrylthiocholine as substrate pretreated for 5 mins followed by substrate addition and measured for 5 mins by Ellman's method
SH-SY5Y [4] = assay: Neuroprotective activity against rotenone/oligomycin A-induced mitochondrial oxidative stress in human SH-SY5Y cells at 3 uM after 24 hrs by MTT assay relative to control; type: functional
SH-SY5Y [5] = assay: Neuroprotective activity against rotenone/oligomycin A-induced mitochondrial oxidative stress in human SH-SY5Y cells at 1 uM after 24 hrs by MTT assay relative to control; type: functional
[6] = Antioxidant activity assessed as trolox equivalent of AAPH-induced radical scavenging activity at 10 uM pretreated for 15 mins followed by APPH challenge measured every minute for 80 mins by ORAC-FL assay; type: functional
[7] = biological target: T2, Sigma intracellular receptor 2 (Rattus norvegicus, UniProt Q5U3Y7); assay: Displacement of [3H]DTG from sigma2 receptor in rat liver membranes by liquid scintillation counting method; type: cell membranes, Membrane
T2 sequence (Q5U3Y7 whole entry): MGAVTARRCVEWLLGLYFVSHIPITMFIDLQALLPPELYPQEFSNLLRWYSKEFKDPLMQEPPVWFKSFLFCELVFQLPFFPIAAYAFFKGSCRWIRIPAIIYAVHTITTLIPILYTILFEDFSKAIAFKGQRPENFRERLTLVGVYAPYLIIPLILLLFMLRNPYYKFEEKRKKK

[8] = biological target: T3, Amine oxidase [flavin-containing] B (Homo sapiens, UniProt P27338); assay: biochemical; type: cell-based
T3 sequence (P27338 whole entry): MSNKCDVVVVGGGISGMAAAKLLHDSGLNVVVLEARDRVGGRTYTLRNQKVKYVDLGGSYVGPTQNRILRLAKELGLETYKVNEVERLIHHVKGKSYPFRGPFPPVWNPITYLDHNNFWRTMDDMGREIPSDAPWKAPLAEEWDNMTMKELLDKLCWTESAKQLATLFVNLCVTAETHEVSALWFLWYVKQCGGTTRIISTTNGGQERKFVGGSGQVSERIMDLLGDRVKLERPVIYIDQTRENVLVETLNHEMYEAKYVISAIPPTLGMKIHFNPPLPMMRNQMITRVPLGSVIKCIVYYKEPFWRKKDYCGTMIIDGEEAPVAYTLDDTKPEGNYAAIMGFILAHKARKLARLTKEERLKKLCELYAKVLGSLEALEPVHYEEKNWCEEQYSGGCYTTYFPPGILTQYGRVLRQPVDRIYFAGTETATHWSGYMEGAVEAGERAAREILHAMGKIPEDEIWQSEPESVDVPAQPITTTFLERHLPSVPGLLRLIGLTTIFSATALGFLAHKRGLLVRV
Description: Inhibition of recombinant human MAO-B expressed in baculovirus infected BTI insect cells using p-tyramine as substrate pretreated for 15 mins followed by substrate addition by horse-radish peroxidase/amplex red-based fluorescence method

[9] = Selectivity ratio of Ki for displacement of [3H]DTG from sigma2 receptor in rat liver membranes to Ki for displacement of (+)-[3H]pentazocine from guinea pig brain membrane sigma1 receptor; type: cell membranes
[10] = biological target: T4, Amine oxidase [flavin-containing] A (Homo sapiens, UniProt P21397); assay: Inhibition of recombinant human MAO-A expressed in baculovirus infected BTI insect cells using p-tyramine as substrate pretreated for 15 mins followed by substrate addition by horse-radish peroxidase/amplex red-based fluorescence method
T4 sequence (P21397 whole entry): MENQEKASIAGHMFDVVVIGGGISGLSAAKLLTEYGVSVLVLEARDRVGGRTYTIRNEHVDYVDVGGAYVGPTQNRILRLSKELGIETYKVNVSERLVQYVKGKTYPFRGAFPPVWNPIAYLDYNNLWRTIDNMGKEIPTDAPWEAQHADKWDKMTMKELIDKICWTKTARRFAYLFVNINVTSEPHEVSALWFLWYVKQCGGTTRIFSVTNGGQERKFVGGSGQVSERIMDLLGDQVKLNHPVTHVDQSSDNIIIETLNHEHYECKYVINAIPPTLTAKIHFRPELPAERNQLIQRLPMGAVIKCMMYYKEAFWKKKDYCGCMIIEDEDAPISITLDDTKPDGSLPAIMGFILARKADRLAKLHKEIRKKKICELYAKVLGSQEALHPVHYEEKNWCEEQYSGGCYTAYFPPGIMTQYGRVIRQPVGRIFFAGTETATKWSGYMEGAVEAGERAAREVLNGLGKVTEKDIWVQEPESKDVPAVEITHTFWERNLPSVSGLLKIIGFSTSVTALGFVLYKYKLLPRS

[11] = biological target: Sigma non-opioid intracellular receptor 1 (Cavia porcellus, UniProt Q60492); assay: Displacement of (+)-[3H]pentazocine from guinea pig brain membrane sigma1 receptor by liquid scintillation counting method
[12] = biological target: T5, Polyunsaturated fatty acid 5-lipoxygenase (Homo sapiens, UniProt P09917); assay: Inhibition of human 5-lipoxygenase using arachidonic acid as substrate pretreated for 10 mins followed by substrate and ATP addition and measured after 20 mins by H2DCFDA probe based fluorescence assay
T5 sequence (P09917 whole entry): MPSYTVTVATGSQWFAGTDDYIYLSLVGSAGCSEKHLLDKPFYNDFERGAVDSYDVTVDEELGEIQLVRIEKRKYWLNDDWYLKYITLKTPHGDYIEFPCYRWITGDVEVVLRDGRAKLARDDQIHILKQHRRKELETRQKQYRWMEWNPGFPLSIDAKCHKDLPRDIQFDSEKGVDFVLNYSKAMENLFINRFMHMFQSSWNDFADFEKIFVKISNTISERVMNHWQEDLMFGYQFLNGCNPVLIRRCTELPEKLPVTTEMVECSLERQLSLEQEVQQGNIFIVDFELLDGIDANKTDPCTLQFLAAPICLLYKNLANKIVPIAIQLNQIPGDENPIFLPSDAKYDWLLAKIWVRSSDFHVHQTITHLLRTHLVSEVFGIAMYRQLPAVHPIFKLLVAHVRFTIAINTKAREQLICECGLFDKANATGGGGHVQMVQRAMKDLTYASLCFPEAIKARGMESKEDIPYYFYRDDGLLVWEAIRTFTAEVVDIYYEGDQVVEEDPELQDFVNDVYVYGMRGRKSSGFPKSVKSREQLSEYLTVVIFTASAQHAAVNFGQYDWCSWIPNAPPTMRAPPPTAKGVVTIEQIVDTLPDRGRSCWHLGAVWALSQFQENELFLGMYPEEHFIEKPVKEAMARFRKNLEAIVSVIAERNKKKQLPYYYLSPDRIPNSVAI

[13] = biological target: T6, Polyunsaturated fatty acid 5-lipoxygenase (Homo sapiens) (UniProt P09917); assay: Inhibition of human 5-lipoxygenase at 10 uM using arachidonic acid as substrate pretreated for 10 mins followed by substrate and ATP addition and measured after 20 mins by […] probe based fluorescence assay relative to control
T6 sequence (whole entry): T5 sequence (P09917 whole entry)

[14] = Antioxidant activity assessed as trolox equivalent of AAPH-induced radical scavenging activity pretreated for 15 mins followed by APPH challenge measured every minute for 80 mins by ORAC-FL assay; type: functional
Acetylcholinesterase [15] = biological target: T1, Acetylcholinesterase; assay: Inhibition of recombinant human AChE expressed in HEK293 cells using varying levels of acetylthiocholine iodide as substrate by Lineweaver-burk plot analysis

Chain of Cholinesterase (P06276 whole entry): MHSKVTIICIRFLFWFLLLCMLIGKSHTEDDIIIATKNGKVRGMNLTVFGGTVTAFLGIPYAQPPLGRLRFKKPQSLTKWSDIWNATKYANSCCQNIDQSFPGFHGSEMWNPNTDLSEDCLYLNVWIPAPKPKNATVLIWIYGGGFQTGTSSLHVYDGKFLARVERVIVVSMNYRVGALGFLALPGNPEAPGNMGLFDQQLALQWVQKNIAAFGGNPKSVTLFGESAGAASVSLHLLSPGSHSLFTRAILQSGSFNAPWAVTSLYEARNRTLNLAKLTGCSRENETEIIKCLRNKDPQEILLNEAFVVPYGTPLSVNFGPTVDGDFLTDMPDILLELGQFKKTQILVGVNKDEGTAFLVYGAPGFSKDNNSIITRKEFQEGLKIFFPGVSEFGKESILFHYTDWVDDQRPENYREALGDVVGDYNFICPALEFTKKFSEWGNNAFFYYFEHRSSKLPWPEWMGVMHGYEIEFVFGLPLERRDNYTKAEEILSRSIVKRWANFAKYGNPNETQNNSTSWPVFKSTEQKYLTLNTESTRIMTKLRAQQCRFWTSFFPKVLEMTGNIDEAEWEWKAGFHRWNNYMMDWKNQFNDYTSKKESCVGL
T1 sequence (P22303 whole entry): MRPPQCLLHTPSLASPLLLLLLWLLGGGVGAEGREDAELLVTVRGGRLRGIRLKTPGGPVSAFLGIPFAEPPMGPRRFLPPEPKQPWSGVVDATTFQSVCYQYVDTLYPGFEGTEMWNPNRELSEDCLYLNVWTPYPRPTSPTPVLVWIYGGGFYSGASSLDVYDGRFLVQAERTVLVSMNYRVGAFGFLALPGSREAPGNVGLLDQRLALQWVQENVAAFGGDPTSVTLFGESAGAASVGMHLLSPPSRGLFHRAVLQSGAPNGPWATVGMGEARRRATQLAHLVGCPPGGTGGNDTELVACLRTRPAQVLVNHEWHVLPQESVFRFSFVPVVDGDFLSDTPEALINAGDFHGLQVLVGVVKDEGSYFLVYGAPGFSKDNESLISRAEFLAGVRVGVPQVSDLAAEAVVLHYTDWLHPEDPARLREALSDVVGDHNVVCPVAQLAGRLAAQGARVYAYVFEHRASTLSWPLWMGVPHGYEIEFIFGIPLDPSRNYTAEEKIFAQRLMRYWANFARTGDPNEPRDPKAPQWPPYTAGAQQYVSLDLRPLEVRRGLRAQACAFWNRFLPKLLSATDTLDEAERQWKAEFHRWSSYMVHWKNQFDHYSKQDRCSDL
Chain of Sigma non-opioid intracellular receptor 1 (Q60492 whole entry): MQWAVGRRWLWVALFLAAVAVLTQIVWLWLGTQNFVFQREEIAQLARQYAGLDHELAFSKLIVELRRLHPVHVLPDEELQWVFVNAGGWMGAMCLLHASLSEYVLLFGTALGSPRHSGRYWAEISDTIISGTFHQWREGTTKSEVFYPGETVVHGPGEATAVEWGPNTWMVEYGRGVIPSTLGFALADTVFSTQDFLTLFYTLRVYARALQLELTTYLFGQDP

## COc1cc2oc(C(=O)OCC3CCN(Cc4ccccc4)CC3)cc(=O)c2cc1OC
Homo sapiens
  Ratio IC50: > 33
SH-SY5Y [1]
  Activity: 19.6%
Acetylcholinesterase [2]
  IC50: 300 nM
In vitro
  Papp: 3.2 ×10⁻⁶ cm/s
SH-SY5Y [3]
  Activity: 19.4%
Cholinesterase
  IC50: > 10000 nM
SH-SY5Y [4]
  Activity: 12.4%
SH-SY5Y [5]
  Activity: 6.8%

## COc1ccc2[nH]c(C(=O)NCCC3CCN(Cc4ccccc4)CC3)cc(=O)c2c1
[6]
  Activity: inactive
Homo sapiens
  Ratio IC50: > 11
[7]
  Ki: 459 nM
[8]
  IC50: > 100000 nM
[9]
  Ratio Ki: 64
[10]
  IC50: > 100000 nM
Acetylcholinesterase [2]
  IC50: 880 nM
In vitro
  Papp: 12 ×10⁻⁶ cm/s
[11]
  Ki: 7.2 nM
[12]
  IC50: > 100000 nM
[13]
  inhibition: 31%
Cholinesterase
  IC50: > 10000 nM

## O=C(NCCC1CCN(Cc2ccccc2)CC1)c1cc(=O)c2c(O)cc(O)cc2o1
Homo sapiens
  Ratio IC50: > 17
[14]
  Activity (umolequiv/umol): 0.8
Acetylcholinesterase [2]
  IC50: 580 nM
In vitro
  Papp: 3.7 ×10⁻⁶ cm/s
[12]
  IC50: 95100 nM
Cholinesterase
  IC50: > 10000 nM

## O=C(NCCCC1CCN(Cc2ccccc2)CC1)c1cc(=O)c2cc(O)ccc2o1
Homo sapiens
  Ratio IC50: > 435
Acetylcholinesterase [15]
  Ki: 11 nM
[14]
  Activity (umolequiv/umol): 1.3
[7]
  Ki: 301 nM
[8]
  IC50: > 100000 nM
[9]
  Ratio Ki: 87
[10]
  IC50: > 100000 nM
Acetylcholinesterase [2]
  IC50: 23 nM
In vitro
  Papp: 4.5 ×10⁻⁶ cm/s
[11]
  Ki: 3.48 nM
[12]
  IC50: 15100 nM
Cholinesterase
  IC50: > 10000 nM

## COc1cc2oc(C(=O)NCCCC3CCN(Cc4ccccc4)CC3)cc(=O)c2cc1OC
[6]
  Activity: inactive
Homo sapiens
  Ratio IC50: > 91
Acetylcholinesterase [15]
  Ki: 21 nM
[8]
  IC50: > 100000 nM
[10]
  IC50: > 100000 nM
Acetylcholinesterase [2]
  IC50: 110 nM
In vitro
  Papp: 5 ×10⁻⁶ cm/s
[12]
  IC50: > 100000 nM
[13]
  inhibition: 48%
Cholinesterase
  IC50: > 10000 nM

## COc1cc2oc(C(=O)NC3CCN(Cc4ccccc4)CC3)cc(=O)c2cc1OC
Homo sapiens
  Ratio IC50: > 15
SH-SY5Y [1]
  Activity: 18%
Acetylcholinesterase [2]
  IC50: 660 nM
In vitro
  Papp: 8.1 ×10⁻⁶ cm/s
SH-SY5Y [3]
  Activity: 5.7%
Cholinesterase
  IC50: > 10000 nM
SH-SY5Y [4]
  Activity: 12.6%
SH-SY5Y [5]
  Activity: 12.3%

## COc1ccc2c(=O)cc(C(=O)NCCC3CCN(Cc4ccccc4)CC3)[nH]c2c1
[6]
  Activity: inactive
Homo sapiens
  Ratio IC50: > 22
[7]
  Ki: 376 nM
[8]
  IC50: 56400 nM
[9]
  Ratio Ki: 8
[10]
  IC50: 72700 nM
Acetylcholinesterase [2]
  IC50: 450 nM
In vitro
  Papp: 10.9 ×10⁻⁶ cm/s
[11]
  Ki: 45.2 nM
[12]
  IC50: > 100000 nM
[13]
  inhibition: 31%
Cholinesterase
  IC50: > 10000 nM

## COc1cc2[nH]c(C(=O)NCCC3CCN(Cc4ccccc4)CC3)cc(=O)c2cc1OC
[6]
  Activity: inactive
Homo sapiens
  Ratio IC50: > 59
Acetylcholinesterase [15]
  Ki: 60 nM
[7]
  Ki: 487 nM
[8]
  IC50: > 100000 nM
[9]
  Ratio Ki: 13
[10]
  IC50: > 100000 nM
Acetylcholinesterase [2]
  IC50: 170 nM
In vitro
  Papp: 5.3 ×10⁻⁶ cm/s
[11]
  Ki: 36.3 nM
[12]
  IC50: > 100000 nM
[13]
  inhibition: 31%
Cholinesterase
  IC50: > 10000 nM

## Nc1ccc2oc(C(=O)NCCC3CCN(Cc4ccccc4)CC3)cc(=O)c2c1
Homo sapiens
  Ratio IC50: 105
Acetylcholinesterase [15]
  Ki: 62 nM
[14]
  Activity (umolequiv/umol): 0.9
[7]
  Ki: 421 nM
[8]
  IC50: > 100000 nM
[9]
  Ratio Ki: 290
[10]
  IC50: > 100000 nM
Acetylcholinesterase [2]
  IC50: 41 nM
In vitro
  Papp: 7.6 ×10⁻⁶ cm/s
[11]
  Ki: 1.45 nM
[12]
  IC50: 28900 nM
Cholinesterase
  IC50: 4300 nM

## O=C(NCCC1CCN(Cc2ccccc2)CC1)c1cc(=O)c2ccccc2o1
Homo sapiens
  Ratio IC50: 46
Acetylcholinesterase [15]
  Ki: 57 nM
Acetylcholinesterase [2]
  IC50: 110 nM
In vitro
  Papp: 6.7 ×10⁻⁶ cm/s
[12]
  IC50: > 100000 nM
[13]
  inhibition: 24%
Cholinesterase
  IC50: 5090 nM

## O=C(NCCC1CCN(Cc2ccccc2)CC1)c1cc(=O)c2cc(O)c(O)cc2o1
Homo sapiens
  Ratio IC50: > 2.4
[14]
  Activity (umolequiv/umol): 1.7
[7]
  Ki: 278 nM
[8]
  IC50: 37900 nM
[9]
  Ratio Ki: 10
[10]
  IC50: 70500 nM
Acetylcholinesterase [2]
  IC50: 4130 nM
In vitro
  Papp: 3.2 ×10⁻⁶ cm/s
[11]
  Ki: 27 nM
[12]
  IC50: 4200 nM
Cholinesterase
  IC50: > 10000 nM

## COc1cc2oc(C(=O)OCCC3CCN(Cc4ccccc4)CC3)cc(=O)c2cc1OC
Acetylcholinesterase [15]
  Ki: 11 nM
Acetylcholinesterase [2]
  IC50: 56 nM
Cholinesterase
  IC50: > 10000 nM
